Results taken from US20160175351A1, “CANCER TREATMENT” (DUKE UNIVERSITY, priority 2013, published 2016).
Where a SMILES comes first, the peptide text is derived from it. The star is where a group is joined. Cbz = O=C(OCc1ccccc1)*; CHN2 = [N-]=[N+]=C*; tBu = CC(C)(C)*

Legend:
[1] = system: Ctr1 ectodomain cleavage in wild type mouse embryonic fibroblasts; experiment: Ctr1 ectodomain cleavage, anti-Ctr1 immunoblot of wild type MEFs (FIG. 4); assay type: cell-based; conditions: E64d 10 μM, harvested 16 hours later
Source text: (§1) FIG. 4 is an immunoblot of protein extracts from wild-type MEFs (lanes 1-4) and Cathepsin L^−/− MEFs (lanes 5-8) with an anti-Ctr1 antibody and an anti-tubulin antibody. Lanes 1 and 2 are duplicate samples from untreated wild type MEFs. Lanes 3 and 4 are duplicate samples from wild-type MEFs treated with the Cathepsin L inhibitor E64d. Lanes 5 and 6 are duplicate samples from untreated Cathepsin L^−/− MEFs. Lanes 7 and 8 are duplicate samples from Cathepsin L^−/− MEFs treated with the Cathepsin L inhibitor E64d.
(§2) Mouse embryonic fibroblasts from wild type and CatL^−/− littermates were cultured in medium supplemented with 10% fetal bovine serum and treated with DMSO or […] of the cell permeable cysteine protease inhibitor E64d and harvested 16 hours later. Total proteins were isolated from the cells by homogenizing cells in ice cold PBS supplemented with 1% Triton-X, 0.1% SDS, and 1 mM EDTA. Cell debris was removed by centrifugation and the total amounts of soluble proteins were quantified in each sample. Equal amounts of proteins were separated on Tris/glycine gradient gel, transferred to nitrocellulose membrane and blocked with 5% non-fat milk in Tris buffered saline supplemented with 0.05% Tween (TBST) for 1 h. Membranes were incubated with anti-Ctr1 antibody (1:1000) followed by anti-rabbit-HRP coupled antibody (1:5000) and bands detected by enhanced chemiluminescent substrate. […]

[2] = system: Ctr1 ectodomain cleavage in Cathepsin L-/- mouse embryonic fibroblasts; experiment: Ctr1 ectodomain cleavage, anti-Ctr1 immunoblot of Cathepsin L-/- MEFs (FIG. 4); assay type: cell-based
Source text: as §1, §2

cathepsin B = cathepsin B (Homo sapiens, UniProt P07858); conditions: known from literature (McGowan 1989; Barrett 1982); cited from earlier work
papain = target: T1, papain (Carica papaya, UniProt P00784); conditions: known from literature (McGowan 1989; Barrett 1982); cited from earlier work
T1 sequence (P00784 134-345): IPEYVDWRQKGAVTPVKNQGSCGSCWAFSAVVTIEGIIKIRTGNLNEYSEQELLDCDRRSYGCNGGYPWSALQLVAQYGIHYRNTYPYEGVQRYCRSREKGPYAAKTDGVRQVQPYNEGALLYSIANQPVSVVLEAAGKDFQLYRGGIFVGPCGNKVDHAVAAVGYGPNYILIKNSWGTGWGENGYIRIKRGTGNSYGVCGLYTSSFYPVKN

calpain = conditions: known from literature (McGowan 1989; Barrett 1982); cited from earlier work
cathepsin H = target: T2, cathepsin H (Homo sapiens, UniProt P09668); conditions: known from literature (McGowan 1989; Barrett 1982); cited from earlier work
T2 sequence (P09668 98-335): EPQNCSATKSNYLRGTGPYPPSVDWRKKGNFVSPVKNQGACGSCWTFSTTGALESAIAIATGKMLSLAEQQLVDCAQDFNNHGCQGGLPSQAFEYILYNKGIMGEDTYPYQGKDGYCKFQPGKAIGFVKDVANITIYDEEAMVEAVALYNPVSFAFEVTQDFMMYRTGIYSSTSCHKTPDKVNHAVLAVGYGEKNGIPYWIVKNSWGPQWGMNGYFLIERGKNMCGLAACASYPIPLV

cathepsin L = cathepsin L (Homo sapiens, UniProt P07711); conditions: known from literature (McGowan 1989; Barrett 1982); cited from earlier work
human Ctr1 = experiment: Ctr1 ectodomain cleavage, anti-Ctr1 immunoblot of Ctr1-/- MEFs stably transfected with human Ctr1 (FIG. 5); assay type: cell-based; conditions: MEFs expressing human Ctr1, inhibitor 10 μM, 16 hours, immunoblot (lane 3)
Experimental: (§3) Each of the above were either untreated (lanes 1 and 2), or treated with the Cathepsin L inhibitor Z-FY(tBu)-DMK (lanes 3 and 4). F=full-length, T=truncated.
(§4) Mouse embryonic fibroblasts from Ctr1^−/− embryos were stably transfected with the human Ctr1 and the human Ctr1 containing the proline to alanine mutation at position 25 (Ctr1^P25A). Cells were cultured in medium supplemented with 20% fetal bovine serum and treated with DMSO or 10 μM cysteine protease Cathepsin L, Z-FY(t-Bu)-DMK and harvested 16 hours later. Total proteins were isolated from the cells by homogenizing cells in ice cold PBS supplemented with 1% Triton-X, 0.1% SDS, and 1 mM EDTA. Cell debris was removed by centrifugation and the total amounts of soluble proteins were quantified in each sample. Equal amounts of proteins were separated on tris/glycine gradient gel, transferred to nitrocellulose membrane and blocked with 5% non-fat milk in Tris buffered saline supplemented with 0.05% Tween (TBST) for 1 h. Membranes were incubated with anti-Ctr1 antibody (1:1000) followed by anti-rabbit-HRP coupled antibody (1:5000) and bands detected by enhanced chemiluminescent substrate. Anti-Actin antibody was used as loading control.
(§5) Inhibition of the cysteine protease Cathepsin L, Z-FY(t-Bu)-DMK (10 μM) (lanes 3 and 4) results in an increased levels of the copper and cisplatin binding full length form of Ctr1. […]

[3] = system: Ctr1-/- MEFs expressing Ctr1^P25A; experiment: Cisplatin uptake/accumulation by ICP-MS in MEFs expressing Ctr1 P25A (FIG. 6); assay type: cell-based, mouse; conditions: inhibitor 10 μM over night, then cisplatin 200 μM for 2 h
Source text: (§6) FIG. 6 is a graph showing platinum accumulation in Ctr1 knockout MEFs (Ctr1^−/−), wild-type MEFs (Ctr1), or MEFs expressing Ctr1 with a Pro25Ala mutation (Ctr1^P25A). Each of the above were either untreated (1, 2 and 3), or treated with the Cathepsin L inhibitor Z-FY(tBu)-DMK (4, 5 and 6).
(§7) Mouse embryonic fibroblasts from Ctr1^−/− embryos were stably transfected with the human Ctr1 and the human Ctr1 containing the proline to alanine mutation at position 25 (Ctr1^P25A). […] Cells were rinsed in three times with ice cold PBS before the cells were scraped and divided into two tubes; one for measuring metal concentration and one for protein quantification. […] Platinum concentrations in the digested samples were measured by inductively coupled plasma mass spectrometry ([…]) and normalized to the total amount of protein in the sample.
(§8) Mouse Ctr1^−/− MEFs were transfected with vector alone (Ctr1^−/−), the expression vector expressing wild type Ctr1 (Ctr1) or the Ctr1^P25A mutant protein (Ctr1^P25A). Cells were incubated with cisplatin (200 μM for 2 h), or cisplatin plus the Cathepsin L inhibitor Z-FY(t-Bu)-DMK (10 μM) as indicated, harvested and cisplatin accumulation measured by ICP-MS and plotted on the Y-axis.

[4] = system: human Ctr1 containing the proline to alanine mutation at position 25 (Ctr1^P25A); experiment: Ctr1 ectodomain cleavage, anti-Ctr1 immunoblot of Ctr1-/- MEFs stably transfected with human Ctr1 P25A (FIG. 5); assay type: cell-based; conditions: MEFs expressing Ctr1^P25A, inhibitor 10 μM, 16 hours, immunoblot (lane 4)
Experimental: as §3, §4, §5

[5] = system: Ctr1-/- MEFs expressing wild type Ctr1; experiment: Cisplatin uptake/accumulation by ICP-MS in MEFs expressing wild type Ctr1 (FIG. 6); assay type: cell-based, mouse; conditions: inhibitor 10 μM over night, then cisplatin 200 μM for 2 h
Source text: as §6, §7, §8

cathepsin L, sequence (P07711 114-333): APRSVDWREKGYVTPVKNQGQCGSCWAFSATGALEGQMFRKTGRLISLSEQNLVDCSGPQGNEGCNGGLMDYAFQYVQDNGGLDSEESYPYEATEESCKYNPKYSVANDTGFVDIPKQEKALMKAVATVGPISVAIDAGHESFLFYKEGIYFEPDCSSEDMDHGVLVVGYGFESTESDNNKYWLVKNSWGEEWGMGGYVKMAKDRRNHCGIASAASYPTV

Structure (SMILES): CCOC(=O)[C@H]1O[C@@H]1C(=O)N[C@@H](CC(C)C)C(=O)NCCC(C)C (relative stereo) [E64d, (2S,3S)-trans-Epoxysuccinyl-L-leucylamido-3-methylbutane ethyl ester]
- levels of cleaved Ctr1 [1]: dramatic reduction
- levels of cleaved Ctr1 ([2]; Cathepsin L knock out MEFs, E64d 10 μM, 16 hours): not
- full-length Ctr1 ([2]; Cathepsin L-/- MEFs treated with E64d vs not treated): increase

Structure (SMILES): CC(C)C[C@H](NC(=O)[C@H]1O[C@@H]1C(=O)O)C(=O)NCCCCN=C(N)N (relative stereo) [E-64, trans-Epoxysuccinyl-L-leucylamido(4-guanidino)butane]
- inhibition of cathepsin B (cathepsin B): inhibit
- inhibition of papain (papain): inhibit
- inhibition of calpain (calpain): inhibit
- inhibition of cathepsin H (cathepsin H): inhibit
- inhibition of cathepsin L (cathepsin L): inhibit

Structure (SMILES): CC(C)(C)Oc1ccc(CC(NC(=O)C(Cc2ccccc2)NC(=O)OCc2ccccc2)C(=O)C=[N+]=[N-])cc1 (stereo not drawn) [Z-FY(t-Bu)-DMK, benzyl (1-((1-(4-(tert-butoxy)phenyl)-4-diazo-3-oxobutan-2-yl)amino)-1-oxo-3-phenylpropan-2-yl)carbamate] (Cbz-Phe-Tyr(tBu)-CHN2; configuration not given here)
- levels of the copper and cisplatin binding full length form of Ctr1 (human Ctr1): increased
- cisplatin accumulation (platinum by ICP-MS, normalized to protein) [3]: enhanced
- levels of the copper and cisplatin binding full length form of Ctr1 [4]: increased
- cisplatin accumulation (platinum by ICP-MS, normalized to protein) [5]: enhanced
